Among the data in a melting point compilation (Tetko et al.; mined from patent text by program, amines drawn as free bases though some values may be those of a salt) are melting point values, retold here.

Broadly, the melting point is the temperature, or range, at which the solid turns liquid. In the case of `Clc1ccc(-n2nc3cc(Cl)ccc3c2Cl)c(Cl)c1`, the melting point worked out at 120 °C.

Take `CCN(C(=O)n1nc2c(Cl)c(Cl)c(Cl)c(Cl)c2n1)c1ccccc1`: the melting point stood at 157 °C.

For the molecule `CC(=O)Oc1c(C)c(C)c2c(c1C)CC(CCI)O2` (racemic), the melting point was 89 to 90 °C.

`CC(Oc1ccc(Oc2ncc(Cl)cc2F)cc1)C(=O)O` (configuration not stated) yielded a melting point of 95 to 97 °C.

Take `Cc1cccc(C)c1NC(=O)NC1(c2cccs2)CCCCC1`: the melting point was in the range of 220 to 222 °C.

`NCC1COc2cc(Cl)cc(-c3ccccc3F)c2N1` (configuration not stated) yielded a melting point of 95 °C.

In the case of `CN(C)CCc1c[nH]c2cc(N(S(=O)(=O)c3cc(Cl)cc(Cl)c3)S(=O)(=O)c3cc(Cl)cc(Cl)c3)ccc12`, the melting point is 103 to 107 °C.

In the case of `COC(=O)c1c(Cc2ccc(S(C)(=O)=O)nc2)c(=O)c2ccc(C)nc2n1-c1ccccc1`, the melting point lay in the range of 217 to 218 °C.

Consider `CCNc1cccnc1N1CCN(C(=O)c2ccc(C(=O)NCCO)cn2)CC1`, for which the melting point lay in the range of 178 to 180 °C.

`CCOC(=O)C1=NN(c2ccc(Cl)cc2)C2(N3CCCC3)CCCC12` (configuration not stated) returned a melting point of 95 to 96 °C.

In turn, `COc1ccc(-c2ccc(O)c(C3(C)CCCCC3)c2)cc1CC1SC(N2CCCC2)=NC1=O` (configuration not stated) gave a melting point of 121 to 122 °C.

For `CCOC(=O)c1ccc(OCCC2CN(c3ccc(SC)nn3)CCO2)cc1` (configuration not stated), the melting point was determined as 111 °C.

`CCCC(C)c1nn(-c2ccc(C(F)(F)F)cn2)cc1CCCOc1c(C)cccc1CC(=O)O` (configuration not stated) registered a melting point of 147 to 148 °C.

`CCOC(=O)C1=C(C)Nc2ccn(CCCN(C)C)c(=O)c2C1c1cccc([N+](=O)[O-])c1` (configuration not stated) displayed a melting point of 212 to 213 °C.

In turn, `CCCCCc1c(C(C)=O)nc(C(C)C)c(CO)c1-c1ccc(F)cc1` returned a melting point of 69 to 70 °C.

Turning to `Cc1ccc(-c2nc(CCl)cs2)s1`, the melting point was 89 to 90 °C.

`Cc1sc2ccccc2c1Br` had a melting point of 39 to 40 °C.

The molecule `CN(C)c1cccc2c(S(=O)(=O)NCC(=O)N3CCC[C@H]3C(=O)OC(C)(C)C)cccc12` displayed a melting point of 60 to 67 °C.

Molecule `Cc1cc(O)c(Cl)c(O)c1` had a melting point of 72 °C.

Consider `Cc1ccc2nc(-c3ccc(Cl)cc3)cc(Cl)c2c1`, for which the melting point lay in the range of 136 to 138 °C.

`CCOC(=O)/C=C/c1cc(OCc2cn(-c3ccc(C(F)(F)F)cn3)nc2C)nn1C` displayed a melting point of 173 to 174 °C.

For the molecule `CC(C)NCC1CCN(c2nc3c(cc2F)c(=O)c(C(=O)O)cn3C2CC2)C1` (configuration not stated), the melting point lay in the range of 240 to 243 °C.

Turning to `COC(=O)COc1cc2c(c3c1c(C(=O)C(N)=O)c(C)n3Cc1ccc(F)cc1)CCC2`, the melting point lay within 134 to 136 °C.

In turn, `Cc1ccccc1OCC(O)CN1CCC(N2CCCNC2=O)CC1` (configuration not stated) showed a melting point of 145 to 147 °C.

Regarding `CCOC(=O)C(=O)Nc1c([N+](=O)[O-])sc2cc(Cl)ccc12`, the melting point lay within 139 to 141 °C.

For `CCCC1(C)CC(=O)NC(=O)C1`, the melting point was 110 to 112 °C.

On to `CCOC(=O)N1CCCN(c2nc3ccccc3[nH]2)CC1`, for which the melting point was 161 to 162 °C.

For the molecule `Cc1cc(F)ccc1-c1nc(NC2CCCCC2)nc2c1ccc(=O)n2-c1ccccc1F`, the melting point is 181 to 182 °C.

On to `CC(C)(C)OC(=O)C(CCCCNC(=O)c1ccc(Cl)c(S(N)(=O)=O)c1)NC1Cc2ccccc2C1` (configuration not stated), for which the melting point is 65 to 68 °C.

`COC(=O)C=CC(=O)c1cc(Cl)ccc1N` gave a melting point of 111 to 112 °C.

Consider `CCOC(=O)C(Cc1cc(OC)c(OC)cc1OC)C(=O)OCC`, for which the melting point fell in the range of 50 to 51 °C.

In turn, `CC(=O)N[C@@H](C)c1ccc(CCl)cc1` had a melting point of 114 to 116 °C.

`CON=Cc1ccc2c(c1)ncn2-c1cccc(-c2ccoc2)c1` displayed a melting point of 147 to 148 °C.

Molecule `CS(=O)(=O)c1cccc(Br)c1` gave a melting point of 63 to 64 °C.

In turn, `COc1cc(NC(C)=O)c(Cl)cc1C(=O)NC1CC2CCCCN2C1` (configuration not stated) gave a melting point of 151 to 153 °C.

With `CCCCCCCCCCc1nnn[nH]1`, the melting point fell in the range of 57 to 59 °C.

Take `CNc1c(S(=O)(=O)C(F)(F)F)c(-c2ncon2)nn1-c1c(Cl)cc(C(F)(F)F)cc1Cl`: the melting point fell in the range of 156 to 158 °C.

Molecule `O=C(NCC12CC3CC(CC(Cl)(C3)C1)C2)c1ccccc1Cl` had a melting point of 153 °C.

Molecule `Cc1ccc(C2COc3c(ccc(O)c3O)C2)cc1` (configuration not stated) came in with a melting point of 164 °C.

`COC(=O)C(C)Oc1ccc(C(C)=O)cc1` (configuration not stated) showed a melting point of 54.8 °C.

The molecule `CCOC(=O)C(C=O)Cc1ccc(OC)nc1` (configuration not stated) registered a melting point of 91.5 to 94 °C.

The molecule `CCOC(=O)c1cn(-c2c(F)cc(F)c([N+](=O)[O-])c2F)c2c(Cl)c(F)c(F)cc2c1=O` registered a melting point of 167 to 169 °C.

The molecule `CCCCN(Cc1ccc(-c2ccccc2-c2nnn[nH]2)cc1)c1nc(SC)ncc1C(=O)OCC` gave a melting point of 161 to 163 °C.

Turning to `N#Cc1cc(F)c(-n2c(=O)cc(C(F)(F)F)[nH]c2=O)cc1Oc1cccc2c(O)cccc12`, the melting point was 168 °C.

With `CC(C)(C)Nc1nc2cc(Cl)c(Cl)cc2n1C1CC(CO)C(O)C1O` (configuration not stated), the melting point was in the range of 130 to 132 °C.

With `CCn1cc(Cl)nc(S(=O)(=O)CC(=O)Nc2ccccc2)c1=O`, the melting point lay within 178 to 180 °C.

Regarding `CCOC(=O)C1=Cc2cc(Cl)cnc2NC1C(F)(F)F` (configuration not stated), the melting point was in the range of 180 to 182 °C.

As to `C=CS(=O)(=O)c1cc2c(Nc3cccc(Br)c3)ncnc2cn1`, the melting point was in the range of 214 to 217 °C.

`Cc1ccc(-c2ccc(C(=O)Nc3ccc4cc(CN5CCCC5)ccc4c3)cn2)cc1` came in with a melting point of 260 to 262 °C.

The molecule `CCCCC(CC)Nc1cc(C)nc(Cl)c1[N+](=O)[O-]` (configuration not stated) returned a melting point of 48 to 49 °C.

Regarding `C1CNCCN2CCOCCOCCN(CCN1)CCOCCOCC2`, the melting point came to 69 °C.

In turn, `CN1CCCC(CC(=O)c2ccc(Cl)c(Cl)c2)C1` (configuration not stated) came in with a melting point of 69 to 71 °C.

`CN(C)c1ccc(CC(=O)N2CCC(c3[nH]nc4c3C(=O)c3c(NC(=O)NN5CCOCC5)cccc3-4)CC2)cc1` had a melting point of 107 to 109 °C.

The molecule `O=C1c2ccccc2C(O)(c2ccc(F)cc2)C2=NC3CCCCC3N12` (configuration not stated) displayed a melting point of 203 to 205 °C.

Molecule `CCCCn1nc(C(C)(F)F)nc1Cc1ccc(-c2ccccc2-c2nnn[nH]2)nc1` registered a melting point of 180 to 182 °C.

Regarding `Cc1cccc2c1C=Cc1ccccc1C2Cl` (configuration not stated), the melting point lay within 158 to 160 °C.

`N#Cc1cc([N+](=O)[O-])ccc1Oc1ccc(Cl)cc1Cl` returned a melting point of 154 °C.

As to `COC(=O)C(CCc1ccc(C#N)cc1)C(N)=O` (configuration not stated), the melting point is 125 °C.

`CNc1nc(-c2cccc(NC(=O)Cc3ccccc3)c2)c2cc(OC)c(OC)cc2n1` returned a melting point of 175 to 177 °C.

As for `O=C(O)c1cc(OCc2ccccc2)ccc1OCc1ccccc1`, the melting point lay within 107 to 108 °C.

`COc1ccc(-c2cncc(OC3SCC(O)C(O)C3O)c2)cc1` (configuration not stated) came in with a melting point of 216 °C.

`FC(F)(F)c1ccc(C=CC(C=Cc2ccc(C(F)(F)F)cc2)=NNC2=NCCCN2)cc1` came in with a melting point of 196 to 197 °C.

In the case of `O=C(NCCO)c1c([N+](=O)[O-])cccc1S(=O)(=O)NCCO`, the melting point is 176 to 178 °C.

In turn, `CN(C)CC#C[C@H]1CC[C@H](CN(C)c2ncc(Br)cn2)CC1` showed a melting point of 71 to 72 °C.

In turn, `O=C(NC1CC1)c1ccc(N2CCN(Cc3cnc4c(c3)NC(=O)[C@@H]3CCCN43)CC2)cc1` came in with a melting point of 265 to 268 °C.

With `Clc1ccc(-c2cc(Cl)c3ccccc3n2)cc1Cl`, the melting point fell in the range of 138 to 140 °C.

`CN1CCC(C2(O)c3ccccc3C=Cc3ccc(C#N)cc32)CC1` (configuration not stated) came in with a melting point of 219 to 221 °C.

As for `CCCOc1ccc2c(c1)C(c1ccccc1OCCC)C(C(=O)O)C2c1ccc2c(c1)OCO2` (configuration not stated), the melting point lay in the range of 179 to 180 °C.

For `CC(=O)Nc1cnc(-c2cc(Cl)cc(Cl)c2Cl)c(NC(=O)C(C)C)n1`, the melting point was 230 to 232 °C.

In turn, `CC(C)CCCC(C)C1CCC2C3CC=C4CC(OC(=O)C(C)(C)COP(=O)(O)OCCBr)CCC4(C)C3CCC12C` (configuration not stated) had a melting point of 98 °C.

Molecule `CCCc1cc(Cl)c(OC(=S)N(C)C)c(C(C)=O)c1O` returned a melting point of 114 to 116 °C.

Molecule `CN(C)C1CCc2[nH]c3ccc(CO)cc3c2C1` (configuration not stated) had a melting point of 195 to 197 °C.

With `COc1ccc2c(c1)c(CC(=O)OCc1ccc(Cl)cc1)c(C)n2C(=O)c1ccc(Cl)cc1`, the melting point lay within 113 to 114 °C.

On to `FC(F)(F)c1ccccc1N=C1CCCc2cc3c(nc21)C(=Nc1ccccc1C(F)(F)F)CCC3`, for which the melting point is 162 to 164 °C.

In the case of `O=[N+]([O-])c1ccc(C=Cc2ccccc2)cc1`, the melting point lay in the range of 46 to 50 °C.

For `O=C1c2ccccc2C(=O)c2sc(Nc3ccccc3)nc21`, the melting point is > 260 °C.

Consider `CC1(O)CCC2C3CCC4=CC(=O)CCC4C3C(=CF)CC21C` (configuration not stated), for which the melting point was in the range of 127 to 131 °C.

As to `COC(=O)C(C)(Oc1cccc(Oc2c(Cl)cc(C(F)(F)F)cc2Cl)c1)[N+](=O)[O-]` (configuration not stated), the melting point is 78 °C.

Molecule `CCOC(=O)COc1ccc(OCc2ccccc2)cc1C(Nc1ccc(C(=N)NC(=O)OC(C)(C)C)cc1)C(=O)OCC` (racemic) gave a melting point of 258 °C.

Turning to `CNC(=O)c1ccccc1Nc1nc(Nc2ccc3c(c2)CCC(F)(F)CC3)ncc1Cl`, the melting point lay within 160 to 168 °C.

`CC(C)Oc1ccc(OCc2ccccc2)cc1-c1nc2cccnc2[nH]1` gave a melting point of 160 to 162 °C.

`O=C1CC(c2cccc(-c3nc(CN4CCOCC4)co3)c2)=Nc2ccc(-n3cccc3)cc2N1`: the melting point was 166 to 167 °C.

In turn, `CCOC(=O)c1ncn2c1[C@@H]1CCCN1C(=O)c1cc([N+](=O)[O-])ccc1-2` showed a melting point of 191 to 193 °C.

Molecule `COc1ccc(C=Nc2ccc(SC)cc2)cc1` came in with a melting point of 183 to 184 °C.

Take `CCCCn1c(=O)c2nn(S(=O)(=O)c3ccc(C(C)(C)C)cc3)cc2n(CCCC)c1=O`: the melting point is 158 to 159 °C.

`O=C(O)C1Cc2c(ccc3c(=O)c4ccccc4oc23)O1` (configuration not stated) gave a melting point of 283 to 286 °C.

With `O=C1Nc2ccccc2/C1=C/c1c[nH]c2ncccc12`, the melting point is > 280 °C.
